According to ChEMBL document CHEMBL3351910, “Two new antioxidant actinosporin analogues from the calcium alginate beads culture of sponge-associated Actinokineospora sp. strain EG49” (Bioorg Med Chem Lett, 2014):
Calls of active or inactive are those of the source. The rule behind the calls is not given here.

Tests used:
[1] = system: Trypanosoma brucei brucei; assay: Antiparasitic activity against Trypanosoma brucei brucei; assay type: functional, organism-based
[2] = system: HL-60; assay: Protection against H2O2-induced human HL60 cells assessed as reduction in DNA damage at 50 uM after 30 mins by comet assay; assay type: functional, cell-based
[3] = system: HL-60; assay: Protection against H2O2-induced human HL60 cells assessed as reduction in DNA damage at 10 uM after 30 mins by comet assay; assay type: functional, cell-based
[4] = Cytotoxicity against human HL60 cells assessed as induction of DNA damage at 1.25 to 10 uM after 24 hrs by fluorescence microscopy; assay type: cell-based; details: hl-60, 24 h
[5] = Antioxidant activity assessed as ferric ion reducing activity at 2 nM to 200 uM by FRAP assay; assay type: physicochemical; details: 0.002 µM
[6] = system: HL-60; assay: Protection against H2O2-induced human HL60 cells assessed as reduction in DNA damage at 1.25 uM after 30 mins by comet assay; assay type: functional, cell-based
[7] = system: HL-60; assay: Protection against H2O2-induced human HL60 cells assessed as reduction in DNA damage at 2.5 uM after 30 mins by comet assay; assay type: functional, cell-based
[8] = Cytotoxicity against human HL60 cells assessed as cell viability up to 50 uM after 4 hrs by fluorescence microscopy; assay type: cell-based; details: hl-60, 4 h
[9] = Cytotoxicity against human HL60 cells assessed as cell viability up to 50 uM after 24 hrs by fluorescence microscopy; assay type: cell-based; details: hl-60, 24 h

IC50 [1]	Activity [5]	Compound	Activity [2]	inhibition [1]	Activity [3]	Activity [4]	Activity [6]	Activity [7]	Activity [8]	Activity [9]
15 µM		Cc1cc(O[C@@H]2O[C@@H](C)[C@H](O)[C@@H](O)[C@H]2O)c2c3c(c(O[C@@H]4O[C@@H](C)[C@H](O)[C@@H](O)[C@H]4O)cc2c1)C(=O)c1c(O)cccc1C3=O								
		CC1(C)CC(O)CC(C)(C)N1[O]	Active							
	Active	Cc1cc(O[C@@H]2O[C@@H](C)[C@H](O)[C@@H](O)[C@H]2O)c2c3c(ccc2c1)C(=O)c1c(O[C@@H]2O[C@@H](C)[C@H](O)[C@@H](O)[C@H]2O)cccc1C3=O		inactive	Active	Non-toxic	Active	Active	Non-toxic	Non-toxic
	Active	Cc1cc(O[C@@H]2O[C@@H](C)[C@H](O)[C@@H](O)[C@H]2O)c2c3c(c(O)cc2c1)C(=O)c1c(O[C@@H]2O[C@@H](C)[C@H](O)[C@@H](O)[C@H]2O)cccc1C3=O		inactive	Active	Non-toxic	Active	Active	Non-toxic	Toxic
